System: clinical mastitis
Assay: Field trials: intramammary infusion in mastitis
Format: in vivo, cow
Settings: treated one time on the previous day
Source text: CDRMREC was infused up the teat duct of all 4 quarters of a cow that had clinical mastitis in the left hindquarter. […] Additionally, because of a differential in the vacuum when milking the cow, infected discharge from the left hindquarter contaminated the left fore quarter which then began to show symptoms of clinical mastitis (flaking in the milk). The left fore quarter had not been infused with erythromycin. […] All signs of swelling were gone. The milk from all quarters was normal and untainted.
Treatment consisted of six 10 ml intramamery ductal infusions of CDRMREC in the afflicted quarter following each milking.
A Jersey cow was suffering from mastitis in the right forequarter and had received an antibiotic infusion in that quarter. […] The next day, after the PM milking, she received only one 10 ml infusion of CDRMREC in each of her quarters.
Her milk appeared normal. Three days later, the swelling was still present and like a flattened golf ball but the milk tested normal.

CC[C@H]1OC(=O)[C@H](C)[C@@H](O[C@H]2C[C@@](C)(OC)[C@@H](O)[C@H](C)O2)[C@H](C)[C@@H](O[C@@H]2O[C@H](C)C[C@H](N(C)C)[C@H]2O)[C@](C)(O)C[C@@H](C)C(=O)[C@H](C)[C@@H](O)[C@]1(C)O [erythromycin]
swelling of afflicted quarter: the swelling still remained
